From ChEMBL document CHEMBL4725337, “Modification of imidazothiazole derivatives gives promising activity in B-Raf kinase enzyme inhibition; synthesis, in vitro studies and molecular docking” (Bioorg Med Chem Lett, 2020)

Columns and labels:
[1] = molecular target: Serine/threonine-protein kinase B-raf (Homo sapiens, UniProt P15056, V600E); test: Inhibition of BRAF V600E mutant (unknown origin)
[2] = system: UACC-62; test: Antiproliferative activity against human UACC-62 cells at 10 uM relative to control; format: functional

Chain of Serine/threonine-protein kinase B-raf (P15056 2-766 V600E limits assumed): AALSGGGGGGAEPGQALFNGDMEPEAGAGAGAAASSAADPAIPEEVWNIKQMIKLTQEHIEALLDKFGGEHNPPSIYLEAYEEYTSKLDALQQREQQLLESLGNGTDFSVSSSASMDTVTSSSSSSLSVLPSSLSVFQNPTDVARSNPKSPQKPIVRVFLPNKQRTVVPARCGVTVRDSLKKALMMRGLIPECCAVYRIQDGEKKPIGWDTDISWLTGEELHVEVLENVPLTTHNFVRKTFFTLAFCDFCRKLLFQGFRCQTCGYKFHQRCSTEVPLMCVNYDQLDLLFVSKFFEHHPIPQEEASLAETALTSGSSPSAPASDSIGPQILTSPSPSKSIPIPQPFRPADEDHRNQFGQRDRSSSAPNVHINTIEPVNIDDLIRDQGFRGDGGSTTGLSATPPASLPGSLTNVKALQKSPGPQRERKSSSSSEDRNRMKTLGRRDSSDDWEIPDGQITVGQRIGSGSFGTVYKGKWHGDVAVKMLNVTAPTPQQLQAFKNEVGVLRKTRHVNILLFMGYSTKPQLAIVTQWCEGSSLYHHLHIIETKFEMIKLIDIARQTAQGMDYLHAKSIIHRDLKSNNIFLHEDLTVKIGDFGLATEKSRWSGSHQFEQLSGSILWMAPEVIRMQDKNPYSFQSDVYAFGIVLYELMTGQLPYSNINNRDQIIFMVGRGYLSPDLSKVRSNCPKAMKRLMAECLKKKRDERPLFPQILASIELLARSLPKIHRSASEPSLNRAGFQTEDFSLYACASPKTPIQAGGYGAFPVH

SMILES	IC50 [1] [nM]	Activity [2] [%]
Nc1cccc(-c2nc3sccn3c2-c2ccnc(NCCNS(=O)(=O)c3ccc(Cl)cc3)n2)c1	16.7	–
Nc1cccc(-c2nc3sccn3c2-c2ccnc(NCCCCNS(=O)(=O)c3ccc(Br)cc3)n2)c1	4.31	3.91
Nc1cccc(-c2nc3sccn3c2-c2ccnc(NCCNS(=O)(=O)c3ccc(C(F)(F)F)cc3)n2)c1	141	–
COc1ccc(S(=O)(=O)NCCNc2nccc(-c3c(-c4cccc(N)c4)nc4sccn34)n2)cc1	23.4	–
Nc1cccc(-c2nc3sccn3c2-c2ccnc(NCCNS(=O)(=O)c3cccc4ccccc34)n2)c1	152	–
Nc1cccc(-c2nc3sccn3c2-c2ccnc(NCCNS(=O)(=O)c3cccc(F)c3)n2)c1	28.3	–

Further lines, with some results ahead:

IC50 [1] [nM]	SMILES	Activity [2] [%]
73.7	Nc1cccc(-c2nc3sccn3c2-c2ccnc(NCCNS(=O)(=O)c3ccc(Br)cc3)n2)c1	–
59.1	Cc1ccc(S(=O)(=O)NCCNc2nccc(-c3c(-c4cccc(N)c4)nc4sccn34)n2)cc1	–
12.7	Nc1cccc(-c2nc3sccn3c2-c2ccnc(NCCNS(=O)(=O)c3ccc(F)cc3)n2)c1	–
